Measured values as given in patent EP0728012B1, “NOVEL GnRH ANALOGUES WITH ANTITUMOUR EFFECTS AND PHARMACEUTICAL COMPOSITIONS THEREOF” (Lovas, Sandor, priority 1994, dated 1996).

Key:
Ishikawa = settings: 30 µM active substance, conjugate, treated once
Procedure: The procedure of treatment was as follows. After trypsinization the cells, 400,000 cells of MCF-7, MDA-MB-231 human mammary carcinoma, PC3 human prostate carcinoma or Ishikawa human endometrium tumour each were passed into Petri dishes of 10 cm in diameter. Starting from the day following transfer, the cells were treated with the substances to be tested in solution prepared with the nutrient medium during the exponential growth phase. The cultures were treated with 1 to 50 µM (calculated for the total volume of the culture) or MI-1544 GnRH antagonist, MI-1892 chicken GnRH antagonist or SJ-1004 GnRH […] on the 7th day.

MCF-7 = settings: MCF-7; 30 µM active substance; conjugate, treated once; cell count on 7th day
Procedure: (§1) The procedure of treatment was as follows. After trypsinization the cells, 400,000 cells of MCF-7, MDA-MB-231 human mammary carcinoma, PC3 human prostate carcinoma or Ishikawa human endometrium tumour each were passed into Petri dishes of 10 cm in diameter. Starting from the day following transfer, the cells were treated with the substances to be tested in solution prepared with the nutrient medium during the exponential growth phase. […]

MDA-MB-231 = settings: MDA-MB-231; 30 µM active substance; conjugate, treated once
Procedure: as §1

human tumour cell lines = test: Inhibition of colony formation (Example 18), cell line not given; type: cell-based; settings: 50 µM of the active substance; cell line not stated
Procedure: The investigation gives a precise information about the cell-damaging effect of the tested substance. In the case of cytostatics the cell-damaging effect is not cell-specific. […] One part of the arrested cells again go into the cycle, the other part may perish (apoptosis). […] The investigations were carried out on MCF-7 and MDA-MB-231 human mammary carcinoma cell lines, PC3 human prostate 15 carcinoma cell line and Ishikawa human endometrium carcinoma cell line. Three hundred cells were set into Petri dishes of 3.5 cm in diameter each. The treatment was carried out once, 24 hours following the explantation, then the colonies formed were counted after 9 to 12 days.

PC3 = test: In vitro inhibition of cell proliferation (Example 19); type: cell-based, human; settings: 30 µM active substance, conjugate, treated once
Outline: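 Starting from 400,000 cells per dish during exponential growth, cultures received GnRH antagonist analogues or lamprey GnRH-III at 1 to 50 µM every two days. Cell count determined on day 7.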

MXT mouse mammary tumour = test: In vivo antitumour effect on mice bearing MXT mouse mammary tumour; design: species or system CBA/Ca mice
Procedure: The MXT mouse mammary carcinoma contains ER and PgR proteins; furthermore, it contains also GnRH receptors; therefore, this in vivo tumour model is suitable for studying both the direct and indirect effects. The treatment of mice bearing MXT mammary tumour was commenced on the day following transplantation. […] Table VI The animals were daily treated in s.c. route starting from the day following transplantation of MXT mouse mammary tumour. […] MI-1544: 75 µg/day/animal; MI-1892: 75 µg/day/animal.

MDA-MB-231 xenograft = test: In vivo antitumour effect on MDA-MB-231 xenograft in immunosuppressed mice; design: species or system CBA/Ca mice
Procedure: The immunosuppression of mice was carried out by using the method of Steel et al. [Br. J. Cancer, 37, 224-230 (1978)]. Immunosuppression and xeno-transplantation
CBA-Ca female mice of about 6 weeks old were thymectomized and then, after one week, they were irradiated with 60Co (whole body irradiation; the lethal dose is 9.5 Gray). Within 24 hours 3 to 5 x 10^5 myelocytes were injected into the animals. Beneath the skin of the immunosuppressed mice 2 x 10^7 tumour cells or, in the case of later passages, […] were implanted. […] The treatment with steroid hormone was stopped by at least one week before beginning the investigation.
Recent investigations have begun on 28 animals bearing MCF-7 xenograft and on 28 animals bearing MDA-MB-231 xenograft. On animals bearing MCF-7 tumour the treatment was commenced in the 5th week following xeno-transplantation; the tumour volume was 205 to 225 mm^3. On animals bearing MDA-MB-231 tumour, the treatment was started in the 4th week after xeno-transplantation with a tumour volume of 140 to 150 mm^3. […] The control groups were daily treated with physiological saline s.c. (Each treated group consisting of 7 animals).
A more recent study was started on 28 animals bearing MDA-MB-231 xenograft. The treatment was begun in the 4th or 5th week following xenotransplantation. The tumour volume was 0.165 to 0.194 cm^3. […] (For treatment of the control group, see the preceding Examples). Each group consisted of 7 animals.

[1] = MXT mouse mammary tumour, Treatment weeks: 13, 1x75 µg daily s.c.
[2] = MXT mouse mammary tumour, Treatment weeks: 20, 1x75 µg daily s.c.
[3] = MDA-MB-231 xenograft, after 9 week treatment, 100 µg daily s.c.
[4] = Table V, treatment week 2, 1x100 µg daily s.c.
[5] = Table V, treatment week 2, conjugates 1x50 µg daily s.c.
[6] = Table V, treatment week 6, 1x100 µg daily s.c.
[7] = Table V, treatment week 6, MI-1892 2x25 µg, conjugates 1x50 µg daily s.c.
[8] = week 0, daily s.c., 1 x 100 µg series
[9] = week 0, daily s.c., P-GFLG-1544 1 x 50 µg, P-GFLG-1892 1 x 75 µg
[10] = week 1, daily s.c., 1 x 100 µg series
[11] = week 1, daily s.c., P-GFLG-1544 1 x 50 µg, P-GFLG-1892 1 x 75 µg
[12] = week 2, daily s.c., 1 x 100 µg series
[13] = week 2, daily s.c., P-GFLG-1544 1 x 50 µg, P-GFLG-1892 1 x 75 µg
[14] = week 3, daily s.c., 1 x 100 µg series
[15] = week 3, daily s.c., P-GFLG-1544 1 x 50 µg, P-GFLG-1892 1 x 75 µg
[16] = week 4, daily s.c., 1 x 100 µg series
[17] = week 4, daily s.c., P-GFLG-1544 1 x 50 µg, P-GFLG-1892 1 x 75 µg
[18] = week 5, daily s.c., 1 x 100 µg series
[19] = week 5, daily s.c., P-GFLG-1544 1 x 50 µg, P-GFLG-1892 1 x 75 µg
[20] = week 6, daily s.c., 1 x 100 µg series
[21] = week 6, daily s.c., P-GFLG-1544 1 x 50 µg, P-GFLG-1892 1 x 75 µg
[22] = week 7, daily s.c., 1 x 100 µg series

“Ac-D-Trp^1,3,D-Cpa^2,{Lys(n-poly-(N-vinylpyrrolidone-co-maleic acid)-Gly-Phe-Leu-Gly]}^6,D-Ala^10-GnRH [P-GFLG-1544]” was tested, and the “% Inhibition of cell division (proliferation)” value (“% Inhibition of cell division” below) (Ishikawa) was 95%, the “% Inhibition of cell division” value (MCF-7) was 58% and the “% Inhibition of cell division” value (MDA-MB-231) was 45%. The “inhibition on the colony formation / survival of the cells” value (human tumour cell lines) was 100%, the “% Inhibition of cell division” value (PC3) was 68.5% and the Inhibition % (MXT mouse mammary tumour; [1]) was 61%. The “Tumour volume as control (%)” value (MXT mouse mammary tumour; [1]) was 39%, the Inhibition % (MXT mouse mammary tumour; [2]) was 49% and the “Tumour volume as control (%)” value (MXT mouse mammary tumour; [2]) was 51%. For the same substance, the “Tumour volume (cm^3)” value (MXT mouse mammary tumour; day 9, 75 µg/day/animal s.c.) was 0.38 cm^3, the “Tumour volume as control (%)” value (MXT mouse mammary tumour; day 9, 75 µg/day/animal s.c.) was 55% and the “Tumour volume (cm^3)” value (MXT mouse mammary tumour; day 11, 75 µg/day/animal s.c.) was 0.74 cm^3. For the same substance, the “Tumour volume as control (%)” value (MXT mouse mammary tumour; day 11, 75 µg/day/animal s.c.) was 41%, the “Tumour volume (cm^3)” value (MXT mouse mammary tumour; day 13, 75 µg/day/animal s.c.) was 1.26 cm^3 and the “Tumour volume as control (%)” value (MXT mouse mammary tumour; day 13, 75 µg/day/animal s.c.) was 39%. The “Tumour volume (cm^3)” value (MXT mouse mammary tumour; day 17, 75 µg/day/animal s.c.) was 2.43 cm^3, the “Tumour volume as control (%)” value (MXT mouse mammary tumour; day 17, 75 µg/day/animal s.c.) was 46% and the “Tumour volume (cm^3)” value (MXT mouse mammary tumour; day 18, 75 µg/day/animal s.c.) was 3.91 cm^3. For the same substance, the “Tumour volume as control (%)” value (MXT mouse mammary tumour; day 18, 75 µg/day/animal s.c.) was 52%, the “Tumour volume (cm^3)” value (MXT mouse mammary tumour; day 20, 75 µg/day/animal s.c.) was 4.74 cm^3 and the “Tumour volume as control (%)” value (MXT mouse mammary tumour; day 20, 75 µg/day/animal s.c.) was 51%. The “Tumour volume (cm^3)” value (MXT mouse mammary tumour; day 24, 75 µg/day/animal s.c.) was 7.34 cm^3, the “Tumour volume as control (%)” value (MXT mouse mammary tumour; day 24, 75 µg/day/animal s.c.) was 58% and the “Tumour volume (cm^3)” value (MXT mouse mammary tumour; day 26, 75 µg/day/animal s.c.) was 9.03 cm^3. For the same substance, the “Tumour volume as control (%)” value (MXT mouse mammary tumour; day 26, 75 µg/day/animal s.c.) was 65%, the “animals that became tumour-free” value (MDA-MB-231 xenograft; MDA-MB-231 xenograft, 100 µg daily s.c., 6th week of treatment) was 1 animals from 7 and the “Volume (cm^3) of tumours” value (MDA-MB-231 xenograft; [3]) was 1.618 ± 0.518 cm^3. The “Weight (g) of tumours” value (MDA-MB-231 xenograft; [3]) was 0.94 ± 0.52 g, the tumour-free animals (MDA-MB-231 xenograft; MDA-MB-231 xenograft, end of the 6th week, first series) was “A tumour-free animal was found” and the Inhibition % (MDA-MB-231 xenograft; [4]) was 29%. For the same substance, the “Tumour volume as control (%)” value (MDA-MB-231 xenograft; [4]) was 71%, the Inhibition % (MDA-MB-231 xenograft; [5]) was 23.5% and the “Tumour volume as control (%)” value (MDA-MB-231 xenograft; [5]) was 76.5%. For the same substance, the Inhibition % (MDA-MB-231 xenograft; [6]) was 53%, the “Tumour volume as control (%)” value (MDA-MB-231 xenograft; [6]) was 47% and the Inhibition % (MDA-MB-231 xenograft; [7]) was 40%. For the same substance, the “Tumour volume as control (%)” value (MDA-MB-231 xenograft; [7]) was 60%, the “Tumour volume (cm^3)” value (MDA-MB-231 xenograft; [8]) was 0.17 cm^3 and the “Tumour volume as control (%)” value (MDA-MB-231 xenograft; [8]) was 101%. For the same substance, the “Tumour volume (cm^3)” value (MDA-MB-231 xenograft; [9]) was 0.15 cm^3, the “Tumour volume as control (%)” value (MDA-MB-231 xenograft; [9]) was 100% and the “Tumour volume (cm^3)” value (MDA-MB-231 xenograft; [10]) was 0.24 cm^3. The “Tumour volume as control (%)” value (MDA-MB-231 xenograft; [10]) was 105%, the “Tumour volume (cm^3)” value (MDA-MB-231 xenograft; [11]) was 0.21 cm^3 and the “Tumour volume as control (%)” value (MDA-MB-231 xenograft; [11]) was 83%. The “Tumour volume (cm^3)” value (MDA-MB-231 xenograft; [12]) was 0.3 cm^3, the “Tumour volume as control (%)” value (MDA-MB-231 xenograft; [12]) was 72% and the “Tumour volume (cm^3)” value (MDA-MB-231 xenograft; [13]) was 0.21 cm^3. The “Tumour volume as control (%)” value (MDA-MB-231 xenograft; [13]) was 66%, the “Tumour volume (cm^3)” value (MDA-MB-231 xenograft; [14]) was 0.36 cm^3 and the “Tumour volume as control (%)” value (MDA-MB-231 xenograft; [14]) was 65%. The “Tumour volume (cm^3)” value (MDA-MB-231 xenograft; [15]) was 0.24 cm^3, the “Tumour volume as control (%)” value (MDA-MB-231 xenograft; [15]) was 66% and the “Tumour volume (cm^3)” value (MDA-MB-231 xenograft; [16]) was 0.35 cm^3. For the same substance, the “Tumour volume as control (%)” value (MDA-MB-231 xenograft; [16]) was 53%, the “Tumour volume (cm^3)” value (MDA-MB-231 xenograft; [17]) was 0.28 cm^3 and the “Tumour volume as control (%)” value (MDA-MB-231 xenograft; [17]) was 67%. For the same substance, the “Tumour volume (cm^3)” value (MDA-MB-231 xenograft; [18]) was 0.46 cm^3, the “Tumour volume as control (%)” value (MDA-MB-231 xenograft; [18]) was 49% and the “Tumour volume (cm^3)” value (MDA-MB-231 xenograft; [19]) was 0.33 cm^3. The “Tumour volume as control (%)” value (MDA-MB-231 xenograft; [19]) was 75%, the “Tumour volume (cm^3)” value (MDA-MB-231 xenograft; [20]) was 0.58 cm^3 and the “Tumour volume as control (%)” value (MDA-MB-231 xenograft; [20]) was 47%. For the same substance, the “Tumour volume (cm^3)” value (MDA-MB-231 xenograft; [21]) was 0.36 cm^3, the “Tumour volume as control (%)” value (MDA-MB-231 xenograft; [21]) was 63% and the “Tumour volume (cm^3)” value (MDA-MB-231 xenograft; [22]) was 0.75 cm^3. The “Tumour volume as control (%)” value (MDA-MB-231 xenograft; [22]) was 59%.
